Here are results for 20 molecules from PubChem BioAssay AID264 (DTP/NCI, 2004).

For the assay, the system named is nude mice, LX-1 lung xenograft intrarenal, tumor weight T/C. Nature of the assay: NCI In Vivo Anticancer Drug Screen. Data for tumor model Human Lung LX-1 Xenograft (intrarenal inoculation) in NU/NU Swiss (nude) mice. Particulars: endpoint: mean tumor weight change, higher = larger tumour. The gist of the method:
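Activity was scored by measuring tumors in treated animals and in vehicle controls, then reporting the treated result as a fraction of the control result.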

Setting [1] is: dose: 200.0 mg/kg/injection, schedule: Q04DX003 (sc), vehicle: distilled water + Tween-80.
The mark [2] stands for this setting: dose: 400.0 mg/kg/injection, schedule: Q04DX003 (sc), vehicle: distilled water + Tween-80.
[3] abbreviates: dose: 50.0 mg/kg/injection, schedule: Q01DX010 (sc), vehicle: saline.
Setting [4] is: dose: 100.0 mg/kg/injection, schedule: Q04DX003 (sc), vehicle: suspension in saline.
The mark [5] stands for this setting: dose: 400.0 mg/kg/injection, schedule: Q04DX003 (sc), vehicle: suspension in saline.
[6] abbreviates: dose: 150.0 mg/kg/injection, schedule: Q04DX003 (sc), vehicle: Klucel (hydroxypropylcellulose) (HPC).
Where [7] appears, read: dose: 300.0 mg/kg/injection, schedule: Q04DX003 (sc), vehicle: Klucel (hydroxypropylcellulose) (HPC).
Setting [8] is: dose: 600.0 mg/kg/injection, schedule: Q04DX003 (sc), vehicle: Klucel (hydroxypropylcellulose) (HPC).
Setting [9] is: dose: 2.0 mg/kg/injection, schedule: Q01DX010 (sc), vehicle: saline.

Each structure is given as a SMILES string. Results filed as inconclusive are left out.

For `Nc1nc(/C=C(/O)c2ccccc2)c2ncn(C3OC(CO)C(O)C3O)c2n1` (stereo not given), the T/C reads like this: (dose: 100.0 mg/kg/injection, schedule: Q04DX003 (sc), vehicle: distilled water + Tween-80) 111 % of control; under setting [1], 100 % of control; under setting [2], 99 % of control.

With `OCCCN1CCCCC1CO` (stereo not given), the T/C (dose: 200.0 mg/kg/injection, schedule: Q04DX003 (sc), vehicle: saline) is 98 % of control.

As for `CS(=O)(=O)OCCN(CCOS(C)(=O)=O)c1ccc(C=O)cc1`, the T/C (dose: 12.5 mg/kg/injection, schedule: Q01DX010 (sc), vehicle: saline) is 188 % of control; the T/C (dose: 25.0 mg/kg/injection, schedule: Q01DX010 (sc), vehicle: saline) was 71 % of control; the T/C under setting [3] is 33 % of control.

Turning to `O=Cc1c(O)c2ccccc2[nH]c1=O`, the T/C was 84 % of control (dose: 150.0 mg/kg/injection, schedule: Q04DX003 (sc), vehicle: saline with Tween-80); 99 % of control (dose: 300.0 mg/kg/injection, schedule: Q04DX003 (sc), vehicle: saline with Tween-80); 90 % of control (dose: 600.0 mg/kg/injection, schedule: Q04DX003 (sc), vehicle: saline with Tween-80); 50 % of control (dose: 1200.0 mg/kg/injection, schedule: Q04DX003 (sc), vehicle: saline with Tween-80).

Take `CCOC(=O)C(N)C[S][Sn]([CH3])([CH3])[Cl]` (stereo not given): the T/C is, setting by setting: (dose: 18.75 mg/kg/injection, schedule: Q04DX003 (sc), vehicle: saline) 52 % of control; (dose: 37.5 mg/kg/injection, schedule: Q04DX003 (sc), vehicle: saline) 57 % of control; (dose: 75.0 mg/kg/injection, schedule: Q04DX003 (sc), vehicle: saline) 54 % of control.

`CC1=C(O)C(=O)[C@@H]2O[C@@H]2C1=O`: the T/C was 103 % of control (dose: 1.25 mg/kg/injection, schedule: Q04DX003 (sc), vehicle: saline); 106 % of control (dose: 2.5 mg/kg/injection, schedule: Q04DX003 (sc), vehicle: saline); 160 % of control (dose: 5.0 mg/kg/injection, schedule: Q04DX003 (sc), vehicle: saline); 114 % of control (dose: 10.0 mg/kg/injection, schedule: Q04DX003 (sc), vehicle: saline).

Take `Cc1ccc2nc(-c3ccc4nc(-c5ccc(N=Nc6ccc(-c7nc8ccc(-c9nc%10ccc(C)c(S(=O)(=O)O)c%10s9)cc8s7)cc6)cc5)sc4c3)sc2c1S(=O)(=O)O`: the T/C under setting [4] was 76 % of control; the T/C under setting [5] is 64 % of control; the T/C (dose: 800.0 mg/kg/injection, schedule: Q04DX003 (sc), vehicle: suspension in saline) was 101 % of control.

Take `O=C(N/N=C\c1cc(Br)cc(Br)c1O)N/N=C/c1cc(Br)cc(Br)c1O`: the T/C was 373 % of control (dose: 50.0 mg/kg/injection, schedule: Q01DX010 (sc), vehicle: saline with Tween-80) and 67 % of control (dose: 800.0 mg/kg/injection, schedule: Q01DX010 (sc), vehicle: saline with Tween-80).

With `CC(=O)N(C)c1ccc(Nc2cc(C)[nH]c3ccc4ncnc4c23)cc1`, the T/C runs as follows: (dose: 50.0 mg/kg/injection, schedule: Q04DX003 (sc), vehicle: saline with Tween-80) 101 % of control; (dose: 100.0 mg/kg/injection, schedule: Q04DX003 (sc), vehicle: saline with Tween-80) 71 % of control; (dose: 200.0 mg/kg/injection, schedule: Q04DX003 (sc), vehicle: saline with Tween-80) 56 % of control.

On to `O=C(CC(=O)C(F)(F)F)c1csc2ccccc12`, for which the T/C runs as follows: (dose: 75.0 mg/kg/injection, schedule: Q04DX003 (sc), vehicle: Klucel (hydroxypropylcellulose) (HPC)) 81 % of control; under setting [6], 70 % of control; under setting [7], 93 % of control; under setting [8], 87 % of control.

As for `N/C(=N\O)c1cn(C2OC(CO)C(O)C2O)c2ncnc(N)c12` (stereo not given), the T/C by setting is: (dose: 2.5 mg/kg/injection, schedule: Q04DX003 (sc), vehicle: Klucel (hydroxypropylcellulose) (HPC)) 95 % of control; (dose: 5.0 mg/kg/injection, schedule: Q04DX003 (sc), vehicle: Klucel (hydroxypropylcellulose) (HPC)) 99 % of control; (dose: 10.0 mg/kg/injection, schedule: Q04DX003 (sc), vehicle: Klucel (hydroxypropylcellulose) (HPC)) 81 % of control; (dose: 20.0 mg/kg/injection, schedule: Q04DX003 (sc), vehicle: Klucel (hydroxypropylcellulose) (HPC)) 44 % of control.

As to `O=C1c2c(O)ccc(O)c2C(=O)c2c(NCCNCCO)ccc(NCCNCCO)c21`, the T/C (dose: 0.5 mg/kg/injection, schedule: Q01DX010 (sc), vehicle: acid diluted with saline) was 57 % of control; the T/C (dose: 0.5 mg/kg/injection, schedule: Q01DX010 (sc), vehicle: water) was 47 % of control; the T/C (dose: 1.0 mg/kg/injection, schedule: Q01DX010 (sc), vehicle: acid diluted with saline) was 40 % of control; the T/C (dose: 1.0 mg/kg/injection, schedule: Q01DX010 (sc), vehicle: water) is 34 % of control; the T/C (dose: 2.0 mg/kg/injection, schedule: Q01DX010 (sc), vehicle: acid diluted with saline) was 52 % of control; the T/C (dose: 5.0 mg/kg/injection, schedule: Q04DX003 (sc), vehicle: water) is 53 % of control. In addition, the T/C (dose: 10.0 mg/kg/injection, schedule: Q04DX003 (sc), vehicle: water) was 26 % of control.

As for `Cc1c(N)nc([C@H](CC(N)=O)NC[C@H](N)C(N)=O)nc1C(=O)N[C@H](C(=O)N[C@H](C)[C@@H](O)[C@H](C)C(=O)N[C@H](C(=O)NCCc1nc(-c2nc(C(=O)NCCC[S+](C)C)cs2)cs1)[C@@H](C)O)C(OC1OC(CO)C(O)C(O)C1OC1OC(CO)C(O)C(OC(N)=O)C1O)c1cnc[nH]1` (stereo not given in full), the T/C under setting [9] was 14 % of control; the T/C (dose: 4.0 mg/kg/injection, schedule: Q01DX010 (sc), vehicle: saline) was 71 % of control; the T/C (dose: 16.0 mg/kg/injection, schedule: Q04DX003 (sc), vehicle: saline) is 49 % of control; the T/C (dose: 32.0 mg/kg/injection, schedule: Q04DX003 (sc), vehicle: saline) is 47 % of control.

With `O=C(O)C(CSC(c1ccccc1)(c1ccccc1)c1ccccc1)N=Cc1cccs1` (stereo not given), the T/C was 86 % of control under setting [4]; 108 % of control (dose: 200.0 mg/kg/injection, schedule: Q04DX003 (sc), vehicle: suspension in saline); 55 % of control under setting [5].

For `c1ccc(CN2CCOC2)cc1`, the T/C is, setting by setting: under setting [3], 81 % of control; (dose: 100.0 mg/kg/injection, schedule: Q01DX010 (sc), vehicle: saline) 165 % of control.

As to `CSc1cc(C)[o+]c(C)c1`, the T/C is 87 % of control (dose: 100.0 mg/kg/injection, schedule: Q04DX003 (sc), vehicle: Klucel (hydroxypropylcellulose) (HPC)) and 76 % of control (dose: 200.0 mg/kg/injection, schedule: Q04DX003 (sc), vehicle: Klucel (hydroxypropylcellulose) (HPC)).

With `O=C(NO)c1cc(O)c(O)c(O)c1`, the T/C by setting is: under setting [1], 66 % of control; under setting [2], 87 % of control; (dose: 800.0 mg/kg/injection, schedule: Q04DX003 (sc), vehicle: distilled water + Tween-80) 100 % of control; (dose: 1600.0 mg/kg/injection, schedule: Q04DX003 (sc), vehicle: distilled water + Tween-80) 90 % of control.

Consider `O=c1oc2c(O)c(O)cc3c(=O)oc4c(O)c(O)cc1c4c23`, for which the T/C is 215 % of control under setting [6]; 86 % of control under setting [7]; 88 % of control under setting [8]; 81 % of control (dose: 1200.0 mg/kg/injection, schedule: Q04DX003 (sc), vehicle: Klucel (hydroxypropylcellulose) (HPC)).

On to `c1ccc([C@H]2CN3CCSC3=N2)cc1`, for which the T/C by setting is: (dose: 30.0 mg/kg/injection, schedule: Q04DX003 (sc), vehicle: saline) 103 % of control; (dose: 60.0 mg/kg/injection, schedule: Q04DX003 (sc), vehicle: saline) 121 % of control.

Turning to `NC(=O)c1cn(C2OC(CO)C(O)C2O)c2ncnc(N)c12` (stereo not given), the T/C by setting is: (dose: 0.5 mg/kg/injection, schedule: Q01DX010 (sc), vehicle: saline) 74 % of control; (dose: 1.0 mg/kg/injection, schedule: Q01DX010 (sc), vehicle: saline) 88 % of control; under setting [9], 27 % of control.
